This note sets out measurements from patent publication US5935997A, “O-thiocarbamoyl-aminoalkanol compounds, their pharmaceutically useful salts and process for preparing the same” (Yukong Limited, priority 1998, dated 1999).

Molecules are shown by their SMILES.

Test [1] relates to mice (CD-1 strain). The experiment in a line: Forced Swimming Test (antidepressant; reduction of immobility). The format is in vivo. The conditions noted are these: one hour prior to immersion, immobility in 15 min. Here is the method:
The therapeutic use of the compounds claimed in the present invention as antidepressants has been proven by the "Forced Swinuning Test", a well known pharmacological screening methods for depression and the results are shown in the following Table II. The procedure described by Porsolt et al., […] was used. Test compound was administered p.o. and i.p. to mice (CD-1 strain), one hour prior to the animals being immersed in a 1500 mL glass beaker (16.5 cm deep, 13.0 cm diameter) filled with water (20~23° C.) to about 5 cm from the top. Mice were kept in the water for a period of 15 minutes and the duration of immobility observed within the 15-minute test period was recorded. A mouse was judged to be immobile if it floated motionlessly in the water making only those movements necessary to keep its head above the water.

In test [2] the test system is mice (CD-1strain). The experiment in a line: Maximal ElectroShock (MES) test (anticonvulsant). The format is in vivo. The conditions noted are these: for MES (animals protected/tested): 30 mg/kg; for ED50: Mus musculus. (In general: In the maximal electroshock model the usual endpoint is tonic extension of the hind limbs.)

In the case of `NC(=S)OC[C@@H](N)Cc1ccccc1`, the “Inhibition (reduction, %)” value in test [1] (i.p. (30 mg/kg)) amounted to 51.2%.

With `NC(=S)OCC(N)Cc1ccc(Cl)cc1` (stereo not drawn), the “Inhibition (reduction, %)” value in test [1] (i.p. (30 mg/kg)) is reported as 30.6%; in test [1] (p.o. (30 mg/kg)) it was 38.1%.

Regarding `CNC(=S)OC[C@H](N)Cc1ccccc1`, the “MES (animals protected/tested)” value in test [2] (po, 0.5 h) is 3/3.

Regarding `CN(C)C(=S)OC[C@H](N)Cc1ccc(Cl)c(Cl)c1`, the “MES (animals protected/tested)” value in test [2] (ip, 4.0 h) is 1/3.

As for `NC(=S)OC[C@H](N)Cc1ccccc1` [drawing 22], the “Inhibition (reduction, %)” value in test [1] (i.p. (30 mg/kg)) was found to be 41.6%.

Take `CNC(=S)OCC(Cc1ccccc1)N(C)C` (stereo not drawn) [drawing 26]: the “Inhibition (reduction, %)” value in test [1] (i.p. (30 mg/kg)) came out at 31.4%; in test [1] (p.o. (30 mg/kg)), 23.4%.

What is called ED50 is the midpoint of the dose-response relation. In the case of `NC(=S)OC[C@H](N)Cc1ccccc1` [drawing 29], the ED50 in test [2] (ip, 0.5 h) stood at 29 mg/kg; in test [2] (po, 0.5 h) it was 189 mg/kg.

Take `CNC(=S)OCC(Cc1ccccc1)N(C)C` (stereo not drawn) [drawing 33]: the ED50 in test [2] (ip, 1 h) came out at 31.5 mg/kg; in test [2] (po, 0.5 h), 82.5 mg/kg.
